Results as given in patent US11939320B2, “Modulators of the integrated stress pathway” (Calico Life Sciences LLC, priority 2017, dated 2024).

Tested on: HEK293T cells carrying the ATF4 luciferase reporter
Assay: ATF4-Luc assay (in vitro model of VWMD)
Assay type: cell-based
Conditions: Homo sapiens, HEK-293T; HEK293T cells with ATF4 5'-UTR firefly luciferase reporter; 1 μg/mL tunicamycin; 7 hours; One Glo luminescence
Outline: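 Reporter cells were stably generated by retroviral transduction and puromycin selection, then seeded at 30,000 cells/well. Next day, cells received 1 μg/mL tunicamycin with 200 nM test compound for 7 h, and luciferase luminescence was read with a one-step reagent. Values reported as EC50.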

O=C(NCc1ccc(C(F)(F)F)cn1)[C@@H]1CC[C@@H](NC(=O)[C@@H]2CNc3cc(Cl)ccc3O2)CO1 (single isomer, unassigned) [Compound 161]
EC50: 250 to 500 nM

O=C(COc1ccc(Cl)c(F)c1)N[C@H]1CC[C@H](C(=O)NCc2ccc(C(F)(F)F)cn2)OC1 [Compound 159, (2R,5S)-5-[2-(4-chloro-3-fluorophenoxy)acetamido]-N-{[5-(trifluoromethyl)pyridin-2-yl]methyl}oxane-2-carboxamide]
EC50: 10 to 50 nM

O=C(COc1ccc(Cl)c(F)c1)N[C@H]1CC[C@H](C(=O)N2CCC(c3ccc(Cl)cc3)CC2)CC1 [Compound 128, 2-(4-chloro-3-fluorophenoxy)-N-{(1r,4r)-4-[4-(4-chlorophenyl)piperidine-1-carbonyl]cyclohexyl}acetamide]
EC50: > 2000 nM

O=C(COc1ccc(Cl)c(F)c1)N[C@H]1CC[C@H](C(=O)N2CC3(CN(c4ccc(Cl)c(F)c4)C3)C2)CC1 [Compound 124, 2-(4-chloro-3-fluorophenoxy)-N-{(1r,4r)-4-[6-(4-chloro-3-fluorophenyl)-2,6-diazaspiro[3.3]heptane-2-carbonyl]cyclohexyl}acetamide]
EC50: > 2000 nM
